According to patent publication US9173876B2, “Preparation and therapeutic applications of (2S,3R)-N-2-((3-pyridinyl)methyl)-1-azabicyclo[2.2.2]oct-3-yl)-3,5-difluorobenzamide” (Targacept, Inc., priority 2009, dated 2015):

What was measured:
[1] = test system: normal rats; experiment: Novel object recognition (NOR) task; assay type: in vivo, rat; settings: for Duration of Effect, NOR (time after dosing): after 3rd administration; for Minimum Effective Dose (MED), NOR: oral, rats, follow-up study FIG. 2
Experimental: Memory was assessed by using the three-trial novel object recognition test. On the first day (exploratory trial), rats were allowed to explore an open arena (44.5×44.5×30.5 cm) for 6 min. On the second day (acquisition trial), rats were allowed to explore the same arena in the presence of two identical objects (both object A) for 3 minutes. On the third day (retention or recall trial), performance was evaluated by allowing the same animal to re-explore the arena for 3 minutes in the presence of two different objects: the familiar object A and a novel object B. An inter-trial interval of 24 hours was imposed between the three NOR trials. Recognition memory was assessed by comparing the time spent exploring a novel (object B) versus a familiar (object A) object during the recall trial. Recognition index was assessed for each animal and expressed as a ratio ((time B/time A+time B)×100).

[2] = test system: CD-1 mice; experiment: Formalin test; assay type: in vivo, mouse
Experimental: Subjects (adult male CD-1 mice (Charles River, Raleigh, N.C.) weighing approximately 20-25 grams) were removed from their home cage and weighed, then placed in a clear Plexiglas™ observation box for an acclimation period of 20-30 minutes. Mice were then removed from the observation chambers and (2S,3R)—N-2-((3-pyridinyl)methyl)-1-azabicyclo[2.2.2]oct-3-yl)-3,5-difluorobenzamide (as the hydrochloride salt in 0.9% saline) (1, 3 or 10 mg/kg s.c. (calculated with respect to the free base)), morphine (5 mg/kg; s.c.) or 0.9% saline vehicle was administered subcutaneously in a volume of 1 mL/kg. Mice were then returned to the chamber for the predetermined pretreatment time of 30 minutes for (2S,3R)—N-2-((3-pyridinyl)methyl)-1-azabicyclo[2.2.2]oct-3-yl)-3,5-difluorobenzamide and morphine.
The subject's assigned paw was grasped gently and formalin solution was injected into the paw intra-dermally in the middle on the dorsal side. Once injected, the subject was immediately returned to its observation chamber and a timer was started to mark the beginning of Phase I. Each subject was videotaped for the entire 40-minute session. […] The time spent licking during that 1 min interval was recorded, and the presence or absence of paw favoring was noted.
For data analyses, phase I of the test was defined as 0 to 5 minutes after formalin injection, and phase II was defined as 20 to 40 minutes after formalin injection. The time spent licking during the 1 minute intervals during those time frames was recorded and graphed as mean±S.E.M. For comparisons across treatment groups, 1-way analyses of variance (ANOVAs) were performed for each phase of the session with treatment as the […] variable. Post-hoc analyses were performed when appropriate to determine specific group differences.

[3] = test system: db/db mouse; experiment: Murine model of type 2 diabetes mellitus (db/db mouse); assay type: in vivo; settings: 1.0 mg/kg oral once daily
Text: The db/db mouse, a well established model of type 2 diabetes mellitus, is a leptin-deficient mutant that expresses an obese phenotype and also commonly expresses metabolic symptoms including hyperglycemia, hyperlipidemia and hyperinsulinemia (Halaas et al., 1995 and Lee et al., 1996). This experimental animal model of diabetes was employed in a study designed to determine the effects of (2S,3R)—N-2-((3-pyridinyl)methyl)-1-azabicyclo[2.2.2]oct-3-yl)-3,5-difluorobenzamide on body mass and several additional metabolic parameters.
In this study, (2S,3R)—N-2-((3-pyridinyl)methyl)-1-azabicyclo[2.2.2]oct-3-yl)-3,5-difluorobenzamide was repeatedly administered orally (via gavage) at 1.0 mg/kg once daily starting from the age of approximately 3 weeks and continuing throughout the 7-week study. Nondiabetic heterozygote littermate mice (db/+; designated “Db”) were used as controls. Body weight and food intake were determined twice weekly. The α7 antagonist methyllycaconitine (MLA) was also given concurrently via gavage at 3 mg/kg daily to selected cohorts of db/db (designated “db”) or db/+mice. At the end of the 7-week dosing regimen, total growth rates (overall body weight gain) and average daily food intake were calculated. In addition, glucose levels were assessed in mice fasted overnight. Furthermore, blood sample analytes from mice fasted overnight were collected for measurements of tumor necrosis factor-a (TNF-α), triglycerides and glycosylated hemoglobin (HbA1c). All data are expressed as mean±SEM. For each parameter investigated, differences among all groups were compared by one-way ANOVA with post-hoc Neuman-Keuls multiple comparison test.

[4] = Aqueous solubility (salt screen); settings: free base form

O=C(N[C@@H]1C2CCN(CC2)[C@H]1Cc1cccnc1)c1cc(F)cc(F)c1 [Compound A]
NOR effect after single oral administration (recall only session) ([1]; 0.28 μmol/kg oral on day 3 only): pro-cognitive effects
Recognition index ([1]; 0.28 μmol/kg oral, 0.5 h after dosing, FIG. 3): 68±4%
Recognition index ([1]; 0.28 μmol/kg oral, 2 h after dosing, FIG. 3): 71±2%
Recognition index ([1]; 0.28 μmol/kg oral, 6 h after dosing, FIG. 3): 62±2%
Recognition index ([1]; 0.28 μmol/kg oral, 24 h after acquisition trial, FIG. 1, vehicle 54±1%): 74±3%
Recognition index ([1]; 0.84 μmol/kg oral, 0.5 h after dosing, FIG. 4): 59±2%
Recognition index ([1]; 0.84 μmol/kg oral, 2 h after dosing, FIG. 4): 63±2%
Recognition index ([1]; 0.84 μmol/kg oral, 6 h after dosing, FIG. 4): 68±3%
Recognition index ([1]; 0.84 μmol/kg oral, 18 h after dosing, FIG. 4): 68±3%
Recognition index ([1]; 0.84 μmol/kg oral, 24 h after acquisition trial, FIG. 1, vehicle 54±1%): 70±4%
Duration of Effect, NOR (time after dosing) ([1]; 0.1 mg/kg (0.28 μmol/kg) oral, FIG. 3, listed as (2S,3R)-N-2-((3-pyridinyl)methyl)-1-azabicyclo[2.2.2]oct-3-yl)-3,5-difluorobenza): Duration 6 h (@ 0.1 mg/kg)
Duration of Effect, NOR (time after dosing) ([1]; 0.3 mg/kg (0.84 μmol/kg) oral, FIG. 4, listed as (2S,3R)-N-2-((3-pyridinyl)methyl)-1-azabicyclo[2.2.2]oct-3-yl)-3,5-difluorobenza): Duration 18 h (@ 0.3 mg/kg)
Duration of Effect, NOR (time after dosing) ([1]; 0.3 mg/kg (0.84 μmol/kg) oral, FIG. 4, listed as Formula I): ≤ 18 h
Doses with statistically significant effect in NOR ([1]; NOR vs. dose, FIG. 1): ≥ 0.1 mg/kg
Doses with statistically significant effect in NOR ([1]; minimum effective dose study, FIG. 2): ≥ 0.03 mg/kg
Minimum Effective Dose (MED), NOR ([1]; listed as (2S,3R)-N-2-((3-pyridinyl)methyl)-1-azabicyclo[2.2.2]oct-3-yl)-3,5-difluorobenza): MED = 0.084 μmol/kg
Minimum Effective Dose (MED), NOR ([1]; listed as (2S,3R)—N-2-((3-pyridinyl)methyl)-1-azabicyclo[2.2.2]oct-3-yl)-3,5-difluorobenza): 0.084 µmol/kg
Time spent licking the paw, phase II ([2]; 10 mg/kg s.c., 20-40 min after formalin, P<0.05): significant in reducing the time spent licking the paw
Time spent licking, phase I ([2]; 1, 3 or 10 mg/kg s.c., 0-5 min after formalin): no statistically significant dose
Time spent licking, phase I or phase II, re-scored across the entire time period ([2]; subsequent analysis of the original videotapes): failed to achieve statistical significance
All parameters measured (body weight gain, food intake, glucose, HbA1c, TNF-α, triglycerides) ([3]; 7 weeks, obese db/db mice vs vehicle): significant decrease in all parameters measured
Average daily food consumption ([3]; 7 weeks, obese mice vs obese controls, FIG. 16): significantly lower
Triglyceride levels ([3]; 7 weeks, obese mice vs vehicle, FIG. 20): significantly lower
Total body weight gain ([3]; 7 weeks, obese mice, FIG. 15): significantly lower
Fasting plasma glucose levels ([3]; 7 weeks, obese mice, FIG. 17): significantly inhibited
Glycosylated HbA1c levels ([3]; 7 weeks, obese mice, FIG. 18): significantly inhibited
Pro-inflammatory cytokine TNF alpha ([3]; 7 weeks, obese mice, FIG. 19): significantly reduced
Food consumption ([3]; lean mice (Db), FIG. 16): unaffected
Water solubility [4]: limited
